What was measured:
[1] = biological target: DNA Seq17 TGAAGGAAGAT; experiment: FP binding assay, DNA Seq17; settings: Seq 17 TGAAGGAAGAT; 0.5 μM SMN-C2
Protocol: (§1) All synthetic DNA and RNA oligomers were purchased from Integrated DNA Technologies and reconstituted in nuclease-free water (Invitrogen #AM9932) at 1 mM. The concentration of the oligonucleotides at ˜0.1 mM was calibrated with the A260 value measured by a NanoDrop ND-1000 (Thermo, Waltham, MA, USA) and the predicted extinction coefficient (http://www.oligoevaluator.com) using Lamber-Beer's Law. The risdiplam analogues (1 mM in DMSO) were diluted in 2× assay buffer (40 mM HEPES, 200 mM NaCl for RNA; 40 mM HEPES, 200 mM NaCl, 1 mM MgCl2 for DNA) to make a 1 μM 2× working solution.
(§2) A 1:2 dilution series (8 points) of each oligonucleotide was prepared in 20-30 μL water to desired concentrations (i.e., 1-128 μM). […] For fluorescence polarization measurement, 20 μL of the above 1× working solution was transferred into a 384-well, black, F-bottom microplates (Greiner Bio-One) in duplicates or triplicates. The plate was equilibrated at room temperature for 5 min before being read using a microplate reader (SYNERGY H1, BioTek; Excitation/Emission=360/460 nm) at 25° C. […] The mixture was then transferred into a microplate (20 μL each well) in duplicates for fluorescence polarization readout. The experimental data were analyzed using Prism 8 software (Graphpad Software, San Diego, CA, USA).

[2] = biological target: DNA Seq10 (UAAAGGAAGGU as deoxyribonucleotides); experiment: FP binding assay, DNA Seq10; settings: Seq 10; 0.5 μM SMN-C2
Protocol: as §1, §2

[3] = biological target: DNA S26 d(TGAAGGAAGG); experiment: FP binding assay, 10-nt DNA S26
Protocol: as §1, §2

[4] = biological target: DNA S8 […]; experiment: FP binding assay, 18-nt DNA S8
Protocol: as §1, §2

[5] = biological target: DNA S9 […]; experiment: FP binding assay, 18-nt DNA S9
Protocol: as §1, §2

[6] = biological target: DNA S21 […]; experiment: FP binding assay, 18-nt DNA S21
Protocol: as §1, §2

[7] = biological target: RNA Seq10 UAAAGGAAGGU; experiment: FP binding assay, RNA Seq10; settings: Seq 10 UAAAGGAAGGU; 0.5 μM SMN-C2
Protocol: as §1, §2

[8] = biological target: DNA Seq13 (UGAAGAAAGGU as deoxyribonucleotides); experiment: FP binding assay, DNA Seq13; settings: Seq 13; 0.5 μM SMN-C2
Protocol: as §1, §2

[9] = biological target: DNA S12 […]; experiment: FP binding assay, 18-nt DNA S12
Protocol: as §1, §2

[10] = biological target: DNA S15 […]; experiment: FP binding assay, 18-nt DNA S15
Protocol: as §1, §2

[11] = biological target: DNA Seq14 AGAAGGTAGGT; experiment: FP binding assay, DNA Seq14; settings: Seq 14 AGAAGGTAGGT; 0.5 μM SMN-C2
Protocol: as §1, §2

[12] = biological target: DNA S2 […]; experiment: FP binding assay, 18-nt DNA S2
Protocol: as §1, §2

[13] = biological target: DNA S11 […]; experiment: FP binding assay, 18-nt DNA S11
Protocol: as §1, §2

[14] = in vitro; settings: human
[15] = biological target: DNA Seq15 TGAAGGATGGT; experiment: FP binding assay, DNA Seq15; settings: Seq 15 TGAAGGATGGT; 0.5 μM SMN-C2
Protocol: as §1, §2

SMILES: CCN1CCN(c2ccc3cc(-c4cn5cc(C)nc(C)c5n4)c(=O)oc3c2)C[C@@H]1C [SMN-C2, (S)-3-(6,8-dimethylimidazo[1,2-a]pyrazin-2-yl)-7-(4-ethyl-3-methylpiperazin-1-yl)-2H-chromen-2-one]
- Kd [1]: 56.4 ± 10.4 µM
- Kd [2]: > 100 µM
- Kd [3]: 6.2 ± 1 µM
- Kd [4]: 12.4 ± 0.4 µM
- Kd [5]: 56.2 ± 13.9 µM
- Kd [6]: > 50 µM
- Kd [7]: > 100 µM
- Kd [8]: > 100 µM
- Kd [9]: 37.4 ± 6.7 µM
- Kd [10]: 31.4 ± 4 µM
- Kd [11]: > 100 µM
- Kd [12]: 20.2 ± 1.7 µM
- Kd [13]: 26.3 ± 1.2 µM
- CC50 [14]: > 30 µM
- Kd [15]: 41.1 ± 4.4 µM
